Reference: PMC9975586, “Inhibitory effect of Selaginella doederleinii hieron on human cytochrome P450” (Frontiers in Pharmacology, 2023)
Like-named read-outs stand apart in the source and are kept apart here. Values belong to the compound of their own block, whether it stands above or below them.

Assays:
CYP1A2 = molecular target: T1, CYP1A2 (Homo sapiens, UniProt P05177); assay: CYP450 cocktail inhibition assay (LC-MS/MS, human liver microsomes); type: in vitro ADME; details: for IC50: HLM 0.5 mg/mL, substrate Phenacetin 10 μM, 15 min
T1 sequence (P05177 1-516): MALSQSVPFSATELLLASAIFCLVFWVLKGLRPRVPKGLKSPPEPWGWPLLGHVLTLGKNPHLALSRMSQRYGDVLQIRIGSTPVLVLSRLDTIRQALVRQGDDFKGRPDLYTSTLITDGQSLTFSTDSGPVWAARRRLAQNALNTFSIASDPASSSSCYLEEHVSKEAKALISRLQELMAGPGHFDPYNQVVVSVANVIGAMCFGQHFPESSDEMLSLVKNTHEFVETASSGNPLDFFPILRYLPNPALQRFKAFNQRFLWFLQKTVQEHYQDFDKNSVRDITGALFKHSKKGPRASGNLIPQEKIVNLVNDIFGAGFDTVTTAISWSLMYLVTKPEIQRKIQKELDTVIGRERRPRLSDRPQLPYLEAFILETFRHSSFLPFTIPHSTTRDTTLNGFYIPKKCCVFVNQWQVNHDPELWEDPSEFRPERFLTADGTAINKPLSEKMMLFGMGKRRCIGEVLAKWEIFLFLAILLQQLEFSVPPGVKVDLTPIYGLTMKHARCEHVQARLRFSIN
Protocol: (§1) The contents of organic solvent and DMSO in incubation mixture was under 1% (v/v) and 0.1% (v/v) respectively. Reactions were terminated by adding 200 µL of an ice-cold stop solution consisting of methanol containing Rutin (2 µg/ml) as internal standard. Samples were subsequently cooled in ice bath to precipitate proteins. Supernatants were collected into clean tubes after centrifugation at 12000 rpm at 4°C for 10 min prior to inject into LC-MS/MS.
(§2) Percentages of control activity were calculated to determine inhibition potency. The inhibition curves were obtained by incubating the cocktail of substrates with 10–11 different compounds’ concentrations, where Delicaflavone and Amentoflavone were 0–50 µM.
(§3) For specific MRM parameters, please refer to Supplementary Table S3.

CYP2C19 [1] = molecular target: T2, CYP2C19 (Homo sapiens, UniProt P33261); assay: as above
Protocol: as §1, §2, §3

CYP2C8 = molecular target: T3, CYP2C8 (Homo sapiens, UniProt P10632); assay: as above; details: for inhibition at 15 min, 10 µM: human, microsomes, pH 7.4
T3 sequence (P10632 1-490): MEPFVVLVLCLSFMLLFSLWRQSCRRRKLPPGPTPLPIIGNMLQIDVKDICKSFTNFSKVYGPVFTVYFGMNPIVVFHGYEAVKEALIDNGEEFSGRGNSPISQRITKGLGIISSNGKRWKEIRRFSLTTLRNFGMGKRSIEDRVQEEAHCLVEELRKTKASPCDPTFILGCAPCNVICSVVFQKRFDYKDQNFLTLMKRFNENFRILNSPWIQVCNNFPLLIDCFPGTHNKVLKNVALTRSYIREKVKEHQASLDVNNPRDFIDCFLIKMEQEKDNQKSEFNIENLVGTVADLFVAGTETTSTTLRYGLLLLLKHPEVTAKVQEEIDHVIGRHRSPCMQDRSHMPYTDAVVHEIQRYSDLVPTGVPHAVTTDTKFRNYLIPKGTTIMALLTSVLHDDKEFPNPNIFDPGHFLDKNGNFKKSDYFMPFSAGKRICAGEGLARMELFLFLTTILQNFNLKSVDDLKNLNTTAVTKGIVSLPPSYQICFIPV
Protocol: as §1, §2, §3

CYP2C9 = CYP2C9 (Homo sapiens, UniProt P11712); assay: as above; details: for inhibition at 15 min, 10 µM: human, microsomes, pH 7.4
Protocol: as §1, §2, §3

CYP2D6 [2] = molecular target: T4, CYP2D6 (Homo sapiens, UniProt P10635); assay: as above
Protocol: as §1, §2, §3

CYP2E1 = CYP2E1 (Homo sapiens, UniProt P05181); assay: as above; details: for inhibition at 15 min, 10 µM: human, pH 7.4
Protocol: as §1, §2, §3

CYP3A = CYP3A (Homo sapiens, UniProt P08684); assay: as above; type: in vitro ADME; details: for IC50 at 15 min / inhibition at 15 min, 10 µM: human, liver microsomes
Protocol: Inhibitory effect of SDEA on CYP450 isoforms was determined by cocktail assay. […] The amount of metabolites produced by incubation without SDEA (control group) was taken as 100%, then draw inhibition efficiency curve.

CYP2C19 [3] = molecular target: T2, CYP2C19; assay: Time-dependent inhibition study (pre-incubation with HLM with/without NADPH, cocktail assay); type: in vitro ADME; details: single point screening; SDEA 0.5 μg/ml, Amentoflavone 0.1 μM, Delicaflavone 2 μM; 35 min pre-incubation with/without NADPH
Protocol: (§4) Enzymes that may be involved in time-dependent were pre-incubated for 0, 5, 10, 15 and 35 min respectively, and then re-incubated to determine the type of inhibition. Residual enzyme activity pre-incubated without NADPH was set as the control group, then drawing suppression curves based on the measured data.

CYP2D6 [4] = molecular target: T4, CYP2D6; assay: as above; type: in vitro ADME; details: single point screening; SDEA 0.5 μg/ml, Amentoflavone 0.1 μM, Delicaflavone 2 μM; 35 min pre-incubation with/without NADPH
Protocol: as §4

CYP3A (Testosterone) = assay: as above; type: in vitro ADME, human; details: single point screening; SDEA 0.5 μg/ml, Delicaflavone 2 μM; 35 min pre-incubation with/without NADPH
Protocol: as §4

[5] = pH 7.4, probe Dextromethorphan (3-methoxymorphinan formation, in cocktail)
[6] = pH 7.4, probe Testosterone 5 µM (in cocktail)
[7] = pH 7.4, probe Testosterone (in cocktail), single-point, 10 μM, cocktail assay, HLM, substrate Testosterone, read-out: inhibitory effect on CYP3A (Testosterone)
[8] = single-point, 10 μM, cocktail assay, HLM

Sequence of CYP2E1 (P05181 whole entry): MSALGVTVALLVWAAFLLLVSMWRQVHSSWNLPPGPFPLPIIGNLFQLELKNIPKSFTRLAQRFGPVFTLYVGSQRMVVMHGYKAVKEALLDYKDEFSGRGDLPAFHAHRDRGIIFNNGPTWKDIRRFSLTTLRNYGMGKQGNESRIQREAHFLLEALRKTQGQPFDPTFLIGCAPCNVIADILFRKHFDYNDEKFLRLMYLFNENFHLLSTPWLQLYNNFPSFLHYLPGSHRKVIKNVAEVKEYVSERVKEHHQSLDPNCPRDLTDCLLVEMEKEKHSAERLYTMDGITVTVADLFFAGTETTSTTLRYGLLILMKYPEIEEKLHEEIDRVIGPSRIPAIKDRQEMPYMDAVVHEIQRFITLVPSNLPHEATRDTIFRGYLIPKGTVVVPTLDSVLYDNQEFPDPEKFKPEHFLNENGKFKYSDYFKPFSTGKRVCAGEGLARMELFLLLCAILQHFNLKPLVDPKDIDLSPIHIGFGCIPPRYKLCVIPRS
Sequence of CYP3A (P08684 2-503): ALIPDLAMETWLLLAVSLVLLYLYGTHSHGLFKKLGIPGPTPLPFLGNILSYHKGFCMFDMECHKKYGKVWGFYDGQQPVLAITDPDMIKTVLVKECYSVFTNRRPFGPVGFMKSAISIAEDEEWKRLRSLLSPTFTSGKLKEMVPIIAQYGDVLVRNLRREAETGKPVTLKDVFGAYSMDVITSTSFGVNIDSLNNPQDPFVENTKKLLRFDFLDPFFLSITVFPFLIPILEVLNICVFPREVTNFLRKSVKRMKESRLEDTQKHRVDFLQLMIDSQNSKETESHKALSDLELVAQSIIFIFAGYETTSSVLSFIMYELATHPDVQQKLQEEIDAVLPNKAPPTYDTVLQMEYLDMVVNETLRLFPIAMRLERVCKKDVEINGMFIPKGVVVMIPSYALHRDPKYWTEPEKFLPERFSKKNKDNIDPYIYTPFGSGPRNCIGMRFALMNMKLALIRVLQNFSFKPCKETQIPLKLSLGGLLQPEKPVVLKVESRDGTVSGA
T2 sequence (P33261 whole entry): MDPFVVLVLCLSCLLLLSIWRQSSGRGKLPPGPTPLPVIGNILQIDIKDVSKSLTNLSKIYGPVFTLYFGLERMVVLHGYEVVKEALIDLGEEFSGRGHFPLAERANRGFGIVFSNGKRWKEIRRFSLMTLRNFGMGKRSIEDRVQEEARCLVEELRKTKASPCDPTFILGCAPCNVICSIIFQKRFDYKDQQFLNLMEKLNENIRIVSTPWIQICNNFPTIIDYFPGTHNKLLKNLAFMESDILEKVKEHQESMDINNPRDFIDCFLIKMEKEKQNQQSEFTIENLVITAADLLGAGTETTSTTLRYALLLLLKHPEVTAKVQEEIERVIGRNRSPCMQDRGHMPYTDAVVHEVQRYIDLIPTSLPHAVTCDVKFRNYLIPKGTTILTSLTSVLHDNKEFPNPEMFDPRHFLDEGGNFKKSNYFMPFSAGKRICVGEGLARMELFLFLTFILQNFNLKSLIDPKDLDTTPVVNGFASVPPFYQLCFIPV
Sequence of CYP2C9 (P11712 whole entry): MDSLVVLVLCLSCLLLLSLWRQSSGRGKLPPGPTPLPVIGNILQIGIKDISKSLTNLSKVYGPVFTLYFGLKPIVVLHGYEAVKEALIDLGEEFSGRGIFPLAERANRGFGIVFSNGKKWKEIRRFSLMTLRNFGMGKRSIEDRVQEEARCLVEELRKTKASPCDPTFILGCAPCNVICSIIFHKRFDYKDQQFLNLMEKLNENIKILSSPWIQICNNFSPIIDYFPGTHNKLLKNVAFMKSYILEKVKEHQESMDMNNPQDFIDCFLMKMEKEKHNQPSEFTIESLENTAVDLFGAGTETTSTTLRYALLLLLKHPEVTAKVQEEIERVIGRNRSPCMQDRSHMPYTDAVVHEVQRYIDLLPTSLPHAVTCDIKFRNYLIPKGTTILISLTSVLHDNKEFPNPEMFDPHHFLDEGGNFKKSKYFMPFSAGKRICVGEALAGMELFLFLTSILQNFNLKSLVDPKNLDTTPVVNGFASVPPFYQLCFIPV
T4 sequence (P10635 whole entry): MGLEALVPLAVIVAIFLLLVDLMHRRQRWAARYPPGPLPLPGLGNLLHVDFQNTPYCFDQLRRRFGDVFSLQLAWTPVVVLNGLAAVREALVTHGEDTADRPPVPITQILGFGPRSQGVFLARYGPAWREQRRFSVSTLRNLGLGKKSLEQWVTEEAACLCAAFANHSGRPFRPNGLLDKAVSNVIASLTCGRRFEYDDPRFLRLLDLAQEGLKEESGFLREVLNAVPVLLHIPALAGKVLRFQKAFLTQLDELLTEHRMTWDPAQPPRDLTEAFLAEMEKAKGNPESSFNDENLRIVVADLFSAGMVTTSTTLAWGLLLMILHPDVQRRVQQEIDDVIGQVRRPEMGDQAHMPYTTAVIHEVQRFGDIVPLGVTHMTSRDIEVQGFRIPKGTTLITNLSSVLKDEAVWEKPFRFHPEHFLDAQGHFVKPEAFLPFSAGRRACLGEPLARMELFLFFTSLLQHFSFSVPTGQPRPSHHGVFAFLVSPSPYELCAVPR

Compound: O=c1cc(-c2ccc(O)c(-c3c(O)cc(O)c4c(=O)cc(-c5ccc(O)cc5)oc34)c2)oc2cc(O)cc(O)c12 [Amentoflavone]
IC50 (CYP1A2): 3.7 µM
inhibition at 15 min, 10 µM (CYP1A2; human, liver microsomes, pH 7.4, probe Phenacetin (in cocktail), single-point, 10 μM, HLM, read-out: inhibitory effect on CYP1A2): > 50%
IC50 (CYP2C19 [1]): 1.06 µM
inhibition at 15 min, 10 µM (CYP2C19 [1]; human, microsomes, pH 7.4): > 50%
IC50 (CYP2C8): 0.144 µM
inhibition at 15 min, 10 µM (CYP2C8): > 50%
IC50 (CYP2C9): 0.142 µM
inhibition at 15 min, 10 µM (CYP2C9): > 50%
IC50 (CYP2D6 [2]): 4.6 µM
inhibition at 15 min, 10 µM (CYP2D6 [2]; human, microsomes, pH 7.4): > 50%
IC50 (CYP2E1): 1.05 µM
inhibition at 15 min, 10 µM (CYP2E1; microsomes): > 50%
IC50 at 15 min (CYP3A; [5]): 0.827 µM
IC50 at 15 min (CYP3A; [6]): 0.435 µM
inhibition at 15 min, 10 µM (CYP3A; pH 7.4, single-point, 10 μM, cocktail assay, HLM, substrate not specified, read-out: inhibitory effect on CYP3A): > 50%

Compound: O=c1cc(-c2ccc(O)cc2)oc2cc(O)cc(O)c12 [Apigenin]
inhibition at 15 min, 10 µM (CYP2C8): > 50%
inhibition at 15 min, 10 µM (CYP2C9): > 50%
inhibition at 15 min, 10 µM (CYP2E1; microsomes): > 50%
inhibition at 15 min, 10 µM (CYP3A; [7]): > 50%

Compound: O=c1cc(-c2ccc(Oc3c(-c4ccc(O)cc4)oc4cc(O)cc(O)c4c3=O)cc2)oc2cc(O)cc(O)c12 [Delicaflavone]
IC50 (CYP1A2): 105 µM
inhibitory effect on CYP1A2 (CYP1A2; single-point, 10 μM, HLM): no obvious inhibitory effect
IC50 (CYP2C19 [1]): 72.8 µM
inhibitory effect on CYP2C19 (CYP2C19 [1]; [8]): no obvious inhibitory effect
IC50 (CYP2C8): 13.4 µM
inhibitory effect on CYP2C8 (CYP2C8; [8]): no obvious inhibitory effect
IC50 (CYP2C9): 40 µM
inhibitory effect on CYP2C9 (CYP2C9; [8]): no obvious inhibitory effect
inhibitory effect on CYP2D6 (CYP2D6 [2]; [8]): no obvious inhibitory effect
IC50 (CYP2E1): 2.86 µM
inhibitory effect on CYP2E1 (CYP2E1; [8]): weak inhibitory effect
IC50 at 15 min (CYP3A; [5]): 33.3 µM
IC50 at 15 min (CYP3A; [6]): 7.25 µM
inhibitory effect on CYP3A (CYP3A; single-point, 10 μM, cocktail assay, HLM, substrate not specified): weak inhibitory effect
time-dependent inhibition on CYP2C19 (CYP2C19 [3]): did not produce time-dependent inhibition effect
time-dependent inhibition on CYP2D6 (CYP2D6 [4]): did not produce time-dependent inhibition effect
time-dependent inhibition on CYP3A (Testosterone) (CYP3A (Testosterone)): did not produce time-dependent inhibition effect

inhibitory effect on CYP2E1 (CYP2E1; microsomes, 10 µM): weak inhibitory effect
inhibition at 15 min, 10 µM (CYP3A; [7]): > 50%
Compound: COc1cc2c(cc1OC)-c1cc3ccc(OC)c(OC)c3c[n+]1CC2 [Palmatine]
